Data taken from patent publication US6362203B1, “4-hydroxy-4-phenylpiperidine derivatives and pharmaceuticals containing the same” (SSP Co., LTD, priority 1999, dated 2002).

Legend:
opioid receptor = details: agonist activity relative to DAMGO (=1.0); guinea pig ileum longitudinal muscle sample
Experimental: Test 1: Action on the ileum sample excised from a guinea pig
A Hartley male guinea pig of about 500 g in weight was employed. From its ileocecum, 15 to 30 cm of the ileum was excised and a longitudinal muscle sample attached with the Auerbach's plexus was prepared. […] The agonist activity was indicated in terms of relative potency to DAMGO ([D-Ala^2, N-MePhe^4, Gly^5-ol]-enkephalin), a selective μ-opioid agonist.

| melting point | SMILES | Relative potency (opioid receptor) |
| --- | --- | --- |
|  | C[C@@H](NC(=O)[C@@H](N)Cc1ccc(O)cc1)C(=O)NCC(=O)N(C)[C@@H](Cc1ccccc1)C(=O)NCCO [DAMGO, [D-Ala^2, N-MePhe^4, Gly^5-ol]-enkephalin] | 1.0 |
| 155 °C | CN(C)C(=O)C(CCN1CCC(O)(c2ccc(O)cc2)CC1)(c1ccccc1)c1ccccc1 |  |
| 169 °C | CN(C)C(=O)C(CCN1CCC(O)(c2cccc(O)c2)CC1)(c1ccccc1)c1ccccc1 |  |
| 110 °C | CN(C)C(=O)C(CCN1CCC(O)(c2ccccc2OCCCCCCO)CC1)(c1ccccc1)c1ccccc1.Cl |  |
| 130 to 131 °C | CCCCNC(=O)C(CCN1CCC(O)(c2ccccc2OCCO)CC1)(c1ccccc1)c1ccccc1 |  |
